Laboratory results from patent publication US11253589B2, “Modulation of the immune response” (priority 2007, dated 2022).

Key:
[1] = tested on: CD4+ Foxp3+ Treg; experiment: CD4+Foxp3+ Treg levels in AHR-d mice; assay type: in vivo; settings: TCDD 1 μg/mouse
From the text: To confirm that the effects on EAE were mediated by the activation of AHR, we used C57BL/6 mice carrying the d allele of the ahr gene (AHR-d mice). This allele codes for a mutant AHR with a 10 fold reduction in its affinity for TCDD and other ligands (Okey et al., Mol Pharmacol. 35, 823-30 (1989)) due to mutations in its ligand binding sites.

[2] = tested on: CD4+CD25- T cells; experiment: CD4+CD25- T cells activated with antibodies to CD3 in the presence of TCDD; assay type: cell-based, mouse; settings: incubation with TCDD
From the text: To rule out any direct cytotoxic or pro-apoptotic effect of TCDD on effector T cells, purified mouse CD4^+CD25^− T cells were activated in vitro with antibodies to CD3 in the presence of TCDD.

[3] = tested on: AHR; experiment: ChIP analysis of the interaction of AHR with CABS and NCABS in foxp3; assay type: cell-based, mouse; settings: CD4+ T cells treated with TCDD for 90'
Experimental: Briefly, cells were treated for 90′ with TCDD, fixed with 1% formaldehyde for 15 minutes and quenched with 0.125 M glycine. Chromatin was isolated and sheared to an average length of 300-500 bp by sonication. Genomic DNA (input) was prepared by treating aliquots of chromatin with RNase, proteinase K and heat for de-crosslinking, followed by ethanol precipitation. AHR-bound DNA sequences were immuno-precipitated with an AHR-specific antibody (Biomol SA-210). Crosslinks were reversed by incubation overnight at 65° C., and ChIP DNA was purified by phenol-chloroform extraction and ethanol precipitation. Quantitative PCR reactions were then performed using the following primer pairs:
Experimental Ct values were converted to copy numbers detected by comparison with a DNA standard curve run on the same PCR plates. Copy number values were then normalized for primer efficiency by dividing by the values obtained using Input DNA and the same primer pairs. Error bars represent standard deviations calculated from the triplicate determinations.

[4] = tested on: IgG serum antibodies to myelin antigens; experiment: Antigen microarray of serum antibody response to myelin; assay type: in vivo, mouse; settings: TCDD-treated mice that did not develop EAE, FDR < 0.05
Experimental: The antigens listed in Table 1 were spotted onto Epoxy slides (TeleChem, Sunnyvale, Calif., USA) as described (Quintana et al., Proc Natl Acad Sci USA 101 Suppl 2, 14615-21 (2004)). Antigens were spotted in replicates of 6, the microarrays were blocked for 1 h at 37° C. with 1% bovine serum albumin, and incubated for 2 hours at 37° C. with a 1:100 dilution of the test serum in blocking buffer. The arrays were then washed and incubated for 45 min at 37° C. with goat anti-mouse IgG Cy3-conjugated detection antibodies (Jackson ImmunoResearch Labs, West Grove, Pa., USA). The arrays were scanned with a ScanArray 4000X scanner (GSI Luminomics, Billerica, Mass., USA). Antigen reactivity was defined by the mean intensity of binding to the replicates of that antigen on the microarray. Raw data were normalized and analyzed using the GeneSpring software (Silicon Genetics, Redwood City, Calif., USA) with the non-parametric Wilcoxon-Mann-Whitney test, using the Benjamini and Hochberg method with a false discovery rate (FDR) of 0.05 to determine significance. The samples were clustered using a pairwise average linkage algorithm based on Spearman's rank correlation as a distance measure. […]

[5] = tested on: CD4+Foxp3:GFP- T cells; experiment: In vitro conversion of CD4+Foxp3:GFP- T cells into Treg; assay type: cell-based, mouse; settings: antibodies to CD3 and CD28 in the presence of TCDD, 5 days
Experimental: CD4+ T cells were purified from Foxp3gfp knock in mice using anti-CD4 beads (Miltenyi, Auburn, Calif., USA) and sorted (FACSAria™ cell sorter, BD Biosciences) into naive CD4^+ Foxp3:GFP^− or CD4^+ Foxp3:GFP T cells. CD4^+ Foxp3:GFP^− T cells were stimulated with plate bound 1 μg/ml of anti-CD3 (145-2C11, eBioscience) and 2 μg/ml of anti-CD28 (37.51, eBioscience) for 5 days, supplemented with recombinant IL-2 (50 U/ml) at day 2 and 4, and analyzed by FACS at day 5 for their differentiation into […]. TGFβ1 (2.5 ng/ml) was used as a positive control.
To establish if TCDD triggered the conversion of CD4^+Foxp3^− T cells into new Foxp3^+ Treg cells, FACS sorted CD4^+Foxp3:GFP− T cells were activated in vitro with antibodies to CD3 and CD28 in the presence of TCDD, and the generation of CD4^+Foxp3:GFP^+ Treg was followed by FACS. TGFb1 was used as a positive control.

[6] = tested on: mutant AHR; settings: Okey et al. 1989; cited from earlier work
[7] = tested on: mouse Foxp3 locus; experiment: Zebrafish microinjected with renilla-tagged mouse Foxp3 BAC; assay type: in vivo; settings: total zebrafish lysates six days after microinjection, increasing amounts of TCDD
Experimental: A modified zebrafish based screening assay was established by microinjecting fertilized zebrafish eggs with a BAC construct encoding the complete mouse Foxp3 locus, with a renilla reporter inserted after the Foxp3 methionine start codon (ATG). Six days after microinjection, renilla activity was determined in total zebrafish lysates.

[8] = tested on: CD4+Foxp3:GFP- 2D2 T cells; experiment: In vivo conversion of transferred CD4+Foxp3:GFP- 2D2 T cells into Treg; settings: recipients given 1 μg/mouse TCDD, immunized 2 days later with MOG35-55
Experimental: To investigate if new Treg could also be generated in vivo following TCDD administration, we transferred CD4^+Foxp3:GFP^− 2D2 T cells from CD90.2 donors into wild type CD90.1 recipients. CD4^+Foxp3:GFP^− 2D2 T cells express a MOG35-55-specific T cell receptor. The recipients were administered 1 μg/mouse TCDD and were immunized 2 days later with MOG35-55. CD4^+Foxp3:GFP^+ CD90.2 T cells (donor cells that underwent conversion into Treg upon treatment with TCDD) were then quantified by FACS.

[9] = tested on: MOG35-55-specific Treg and Teff; experiment: MOG35-55-specific Treg and Teff by MHC class II tetramer FACS; assay type: in vivo, mouse; settings: Foxp3gfp mice, ITE 200 mg/mice intraperitoneal daily
Experimental: To investigate the effect of AHR activation by ITE on the frequency of MOG35-55 specific Treg and effector T cells (Teff), Foxp3^gpf knock in mice were immunized with MOG35-55/CFA, treated daily with intreaperitoneal ITE ([…]) and MOG35-55-specific Treg (CD4^+ FoxP3:GFP^+) and Teff (CD4^+ FoxP3:GFP^−) were analyzed by FACS using recombinant MHC class II tetramers containing […] or the control peptide TMEV70-86.

[10] = in vivo; cited from earlier work

| SMILES | levels of CD4+ Foxp3+ Treg [1] | T cell apoptosis (annexin-FITC staining) ([2]; antibodies to CD3) | proliferative response ([2]; antibodies to CD3, 72 hours) | AHR binding to NCABS-1, NCABS-3 in foxp3 (ChIP) [3] | AHR binding to the CABS and NCABS-2 in foxp3 (ChIP) [3] | IgG serum antibodies to myelin antigens [4] | conversion of cells in culture into CD4+Foxp3:GFP+ Treg [5] | reduction in affinity of mutant AHR (d allele) for TCDD [6] [fold] | renilla luciferase activity (murine Foxp3 expression) [7] | conversion of CD4+Foxp3:GFP- CD90.2 donor T cells into Treg cells [8] | frequency of MOG35-55-specific Teff [9] | frequency of MOG35-55-specific Treg [9] | toxic effects [10] |
| --- | --- | --- | --- | --- | --- | --- | --- | --- | --- | --- | --- | --- | --- |
| Clc1cc2c(cc1Cl)Oc1cc(Cl)c(Cl)cc1O2 [TCDD, 2,3,7,8 tetrachlorodibenzo-p-dioxin] | did not increase the levels | did not increase T cell apoptosis | did not decrease the proliferative response | No significant increase in AHR binding | increased AHR binding to the CABS and NCABS-2 | significant decrease in IgG serum antibodies to 97 myelin antigens | approximately 13% | 10 | increased in the presence of TCDD in a dose-dependent manner | significant |  |  |  |
| COC(=O)c1csc(C(=O)c2c[nH]c3ccccc23)n1 [ITE, 2-(1′H-indole-3′-carbonyl)-thiazole-4-carboxylic acid methyl ester] |  |  |  |  |  |  |  |  |  |  | decrease in the frequency | concomitant increase in the frequency | do not display the toxic effects |
